Experimental data: patent US20160347739A1, “5-OXOPYRROLIDINE DERIVATIVES AS HIV INTEGRASE INHIBITORS” (priority 2014, published 2016)
Entries after “also recorded” stand apart in the source; their conditions may differ.

Molecular target: T1, eGFP-MBP-IN-WT (HIV-1 integrase fusion protein) (Human immunodeficiency virus type 1 group M subtype B, UniProt P04585)
T1 construct: as well as integrase wild type (eGFP-MBP-IN-WT) DNA plasmid; expressed in transfected cells; host or cells: HEK 293T cells; plasmid from Dr. Mark A. Muesing (Rockefeller University)
Assay: cellular integrase screening assay (C-terminal domain of HIV-1 IN nuclear import inhibition)
Format: cell-based
Settings: HEK 293T cells transfected with eGFP-MBP-IN-WT plasmid; compounds at 10, 3.3, 1.1 and 0.33 μM, 0.1% DMSO; fluorescence microscopy
Procedure: In assessing suitability of a compound according to any of the formulas herein, an integrase screening assay can be conducted. In the present case, an exemplary such assay is a cellular integrase assay. A cellular integrase assay can be performed in a 24 well plate. The assay is designed to test compounds in 3-fold serial dilutions (10, 3.3, 1.1 and 0.33 μM) with 0.1% DMSO. Negative and positive control included eGFP-MBP-IN-R262/3/6A, eGFP-MBP-IN-K236/240 and eGFP-MBP-IN-WT respectively supplemented with 0.1% DMSO. Refinement of the assay for optimal results is feasible. For example, refinement herein yields the following protocol. HEK 293T cells (˜0.4*10̂5 cells/ml) are seeded and incubated at 37° C. (5% CO2) for ˜3 days on Poly-L-lysine treated glass coverslips until 80-90% confluent (˜3.2*10̂5 cells/ml). […] Images may be prepared using an Olympus 1X51 fluorescence microscope equipped with a camera by way of example. […]
As an integrase screening assay, a cellular integrase assay was performed in a 24 well plate. […] Slides were visualized and images, of at least 2 fields per glass disk, were taken with an Olympus 1X51 fluorescence microscope equipped with a camera. […]

N-(3-ethoxy propyl)-1-[2-(5-methyl-1H-indol-3-yl)ethyl]-5-oxopyrrolidine [compound 209]
localization phenotype of eGFP-MBP-IN-WT fusion protein (inhibition of nuclear import of IN): nuclear exclusion of the fusion protein; also recorded: exhibited inhibition against HIV to prevent nuclear import of the HIV integrase; also recorded: inhibition of nuclear import of IN
